# Laboratory results as given in PubChem BioAssay (NCI).
#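 Cultured in 96-well plates, cells were exposed to test compound for 48 hours across five concentrations. TGI is the concentration that stops growth completely.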
# Legend:
# Assay in all cases: DTP human tumour cell line panel, 48 h
# MOLT-4 leukemia = test system: MOLT-4 leukemia
# MALME-3M melanoma = test system: MALME-3M melanoma
# M14 melanoma = test system: M14 melanoma
# SNB-19 CNS = test system: SNB-19 CNS
# NCI-H23 lung = test system: NCI-H23 lung
# SF-295 CNS = test system: SF-295 CNS
# MDA-N = test system: MDA-N
# 786-0 renal = test system: 786-0 renal
# U251 CNS = test system: U251 CNS
# TK-10 renal = test system: TK-10 renal
# PC-3 prostate = test system: PC-3 prostate
# OVCAR-5 ovarian = test system: OVCAR-5 ovarian
# SF-268 CNS = test system: SF-268 CNS
# BT-549 breast = test system: BT-549 breast
# HCT-15 colon = test system: HCT-15 colon
# SF-539 CNS = test system: SF-539 CNS
# NCI-H226 lung = test system: NCI-H226 lung
# HS 578T breast = test system: HS 578T breast
# OVCAR-4 ovarian = test system: OVCAR-4 ovarian
# SR leukemia = test system: SR leukemia
Structure (SMILES),TGI (MOLT-4 leukemia) [µM],TGI (MALME-3M melanoma) [µM],TGI (M14 melanoma) [µM],TGI (SNB-19 CNS) [µM],TGI (NCI-H23 lung) [µM],TGI (SF-295 CNS) [µM],TGI (MDA-N) [µM],TGI (786-0 renal) [µM],TGI (U251 CNS) [µM],TGI (TK-10 renal) [µM],TGI (PC-3 prostate) [µM],TGI (OVCAR-5 ovarian) [µM],TGI (SF-268 CNS) [µM],TGI (BT-549 breast) [µM],TGI (HCT-15 colon) [µM],TGI (SF-539 CNS) [µM],TGI (NCI-H226 lung) [µM],TGI (HS 578T breast) [µM],TGI (OVCAR-4 ovarian) [µM],TGI (SR leukemia) [µM]
OC(CCN1CCCCC1)(c1ccccc1)c1ccccc1,> 100,> 100,> 100,> 100,> 100,> 100,> 100,> 100,> 100,> 100,> 100,> 100,> 100,> 100,> 100,–,–,–,–,–
CN(C)C=Nc1cccc2nsnc12,> 100,> 100,> 100,> 100,> 100,> 100,> 100,> 100,> 100,> 100,> 100,> 100,> 100,> 100,> 100,> 100,> 100,> 100,> 100,–
O=C(c1cc(Cl)cc(Cl)c1)N(C(=O)N1CCN(c2ccccc2)CC1)c1ccccc1,> 100,> 100,> 100,> 100,> 100,> 100,30.3,> 100,> 100,> 100,> 100,> 100,> 100,> 100,> 100,> 100,> 100,> 100,> 100,–
CC1=NN(C(=O)CC(=O)Nc2ccc(C)cc2)C(=O)C1N=Nc1ccc(C(=O)O)cc1 (stereo unspecified),–,> 100,> 100,> 100,> 100,> 100,> 100,> 100,> 100,> 100,> 100,> 100,> 100,> 100,> 100,> 100,–,> 100,> 100,> 100
COc1cc(OCc2ccc3nc(-c4ccccc4)c(Cl)nc3c2)cc(OC)c1OC,> 100,96.1,> 100,> 100,> 100,> 100,> 100,> 100,52.3,> 100,> 100,> 100,> 100,–,> 100,> 100,–,> 100,> 100,> 100
OC1(CCc2ccccc2)COC(C(F)(F)F)(C(F)(F)F)C1 (stereo unspecified),> 100,> 100,> 100,> 100,> 100,> 100,> 100,> 100,> 100,> 100,> 100,> 100,> 100,–,> 100,> 100,> 100,> 100,> 100,> 100
CCN(CC)c1cc2c3c(c1)CCCN3CCC2,> 10,> 10,> 10,> 10,> 10,> 10,> 10,> 10,> 10,> 10,> 10,–,> 10,–,> 10,> 10,> 10,> 10,> 10,> 10
